Assay results: patent publication US9751909B2, “Synthesis and uses of nucleic acid compounds with conformationally restricted monomers” (Marina Biotech, Inc., priority 2011, dated 2017)

What was measured:
[1] = Tolerability in mice: body weight, clinical signs, spleen weight, serum chemistry; conditions: BALB/c mice
Description: Treatment groups (n=5) were injected intravenously at a 10 mg/kg dose with a dosing schedule of Q1d×3 (every day for three consecutive days). Necropsy was performed at 24 h after the last dose. Body weights and clinical signs were monitored during the course of the study. Liver and spleen were harvested.

microRNA-122 = test: De-repression of downstream mRNAs of microRNA-122 in mouse liver by CRN-containing antimir; assay type: in vivo, mouse (BALB/c)
Description: The CRN-containing antimir CRN-Antimir-122-8a was synthesized by the methods of this invention. MicroRNA-122 is an miRNA shown to be liver-specific and involved in lipid metabolism and possibly hepatitis C virus replication. MicroRNA-122 regulates various downstream mRNAs. CRN-Antimir-122-8a is 16-mer oligonucleotide complementary to the 5′ end of microRNA-122 that can silence microRNA-122 and de-repress its downstream targets.
Liver and spleen were harvested.
The end points determined were expression of downstream genes AldoA (Aldolase A), P4H4 (Prolyl 4-hydroxylase gene), and SLC7A1 (Solute carrier family 7). Negative control was a mismatched Antimir-122 sequence.

[2] = 8-week old BALB/c mice, 10 mg/kg intravenously Q1d×3, necropsy 24 h after last dose

crnm5CsdCsdAscrnTscrnTsdGscrnTscrnm5CsdAscrnm5CsdAsdCsdTscrnm5Cscrnm5CsdA (antisense CCATTGTCACACTCCA; CRN nucleotides, phosphorothioate linkages; (1)..(16) Phosphorothioate linkage between nucleotides; modified_base (1)..(1) Conformationally restricted 5′-methyl nucleomonomer; modified_base (2)..(3) deoxy-nucleotide; modified_base (4)..(5) Conformationally restricted nucleomonomer; modified_base (6)..(6) deoxy-nucleotide; modified_base (7)..(7) Conformationally restricted nucleomonomer; modified_base (8)..(8) Conformationally restricted 5′-) [CRN-Antimir-122-8a, 16-mer oligonucleotide complementary to the 5′ end of microRNA-122; CRN/deoxy nucleotides with phosphorthioate linkages]
alterations in liver and kidney enzymes ([1]; 10 mg/kg intravenously Q1d×3): No alterations | body weight loss after dosing ([1]; 10 mg/kg intravenously Q1d×3): No body weight loss | other serum chemistry parameters ([1]; 10 mg/kg intravenously Q1d×3): within expected normal levels | tolerability ([1]; 10 mg/kg intravenously Q1d×3): well tolerated | spleen weights relative to buffer control ([1]; 10 mg/kg intravenously Q1d×3, necropsy 24 h after last dose): unaltered | de-repression in liver AldoA mRNA relative to buffer control (microRNA-122; [2]): Up to 2.5 fold | de-repression in liver P4H4 mRNA relative to buffer control (microRNA-122; [2]): Up to 1.5 fold | de-repression in liver SLC7A1 mRNA relative to buffer control (microRNA-122; [2]): Up to 1.3 fold | de-repression of downstream genes ALDOA, SLC7A, P4H4 in the mouse model (microRNA-122; mouse model, result in words): demonstrated de-repression
